What was measured:
[1] = Enhancement of the hypnotic effect of sodium pentobarbital (loss of righting reflex); assay type: in vivo; conditions: mouse
Procedure: 40 mg, kgof sodium pentobarbital was injected intraperitoneal ly into mice and note was taken of animals losing the righting re= flex and for how long. Other mice received a preliminary treat= ment with PTT-01 at a dosage of 25 and 50 mg/kg, intraperitoneally and thereafter sodium pentobarbital was given.

[2] = Diuresis in water-loaded rats; assay type: in vivo
Choleresis = assay type: in vivo; conditions: single 50 mg/kg oral dose
Procedure: (§1) The effect of a single 50 mg/kg oral dose of PTT-01 was deter mined on (a) diuresis in water-loaded rats, (b) choleresis, (c) ex cretion rate of intravenously injected bromosulphonphthalein in bi le, (d) arterial blood pressure.

[3] = Antagonism towards strychnine: time to death under slow intravenous infusion; assay type: in vivo; conditions: mice; for mean infusion time to cause death: infusion rate 0.25 ml/min
Procedure: (§2) This type of antagonism was evaluated in the mouse as follows: (1) protection from death caused by a hypodermic injection of strychnine; (2) evaluation of the LD50 of strychnine both in mice treated and untreated with PTT-01 and (3) influence on the time re quired to cause animals to die by slow intravenous perfusion of strychnine.
(3) continuous intravenous infusion at constant rate (0.4 ml/min) of a strychnine sulfate solution (26.66 mg/l) was carried out by injection in a tail vein in mice until they died. One group of aninals received 50 mg/kg of PTT-01 as preliminary treatment 15 mi nutes before the beginning of the infusion. The mean infusion ti me to cause six controls to die was 134 ± 3.2 seconds (mean + SE). The mean infusion time required to obtain the same effect in animals pretreated with PTT-01 was 210 ± 6.1 seconds.
In another experiment the infusion rate of strychnine was low ered to 0.25 ml/min. Under this conditions, the mean infusion ti me was 246 ± 3.1 seconds in the case of controls (six animals) and 338 ± 24.3 seoondss in treated animals.
When the above mentioned infusion rate was maintained, while redu= cine the amount of PTT-01 to 25 mg/kg, the mean infusion time was 260 + 13.4 seconds in controls and 360 + 21.2 seconds in the treat ed animals.

[4] = Avoidance reflex (response time in two-chamber conditioning cage); assay type: in vivo; conditions: four conditioned mice, controls 53.3±4.5 sec
Source text: (§3) This particular feature of the compound could be deduced from the influence the compound exerted on: (a) d-amphetamine toxicity to mice kept in group, and (b) response time of une avoidance re= flex.
A conditioning cage consisting of two chambers was used, with free access between the chambers. The floor of one compartment was electrified to make it possible to deliver a mild shook. Eice were conditioned by first giving a warning signal and then,af ter a short period of time the shock was applied. Mice learned to leave the electrified compartment after the warning bell soun= ded were then judged to be conditioned. The average period of ti me, in this experiment, for controls (4) within which they leave the compartment was 53.3±4.5 sec. Four conditioned mice were given PTT-01 intraperitoneally(25 mg/kg); time within which they left the compartment was 60.6 + 3.9 sec. Four conditioned mice treat= ed with 50 mg/kg of PTT-C1 left the compartment only after 77.5 ± 2.7 sec.

[5] = Acute toxicity in animals; assay type: in vivo, rats ( Wistar-Morini Strain); conditions: for LD50: aqueous 1% suspension of tragacanth gum
Procedure: PTT-01 was administered to adult rats ( Wistar-Morini Strain) of both sexes after fasting overnight. It was administered in an aqueous 1% suspension of tragacanth gum orally by gastric probe or intraperitoneally.

[6] = Antagonism towards electroshock (maximal electroshock, MES); assay type: in vivo; conditions: mouse; for Number of animals with Clonic convulsions / Number of animals with Tonic convulsions: treated animals in parentheses
Procedure: Electroshock was produced in mice by applying ear electrodes. Stimulation parameters which could induce the maximal electroshok (MES) were adopted. This was obtained by applying rectangular input shocks for 0.6 seconds. Each input lasted […] and the input frequency was 25/sec. Phenobarbital sodium was used as control substance. […]

[7] = Excretion rate of intravenously injected bromosulphonphthalein in bile; assay type: in vivo; conditions: single 50 mg/kg oral dose
Procedure: as §1

Rotating bar test = assay type: in vivo; conditions: trained mice, group of five
Procedure: Mice were trained to remain on a rotating bar for at least 3 minutes. A group of five of the trained mice were given an intra peritoneal injection of 25 mg/kg of PTT-01 in a 1% suspension of tragacanth gum. Another group of five mice were given an intra= peritoneal injection of 50 mg/kg of PTT-01 in a 1% suspension of tragacanth gum. All control animals stayed on the bar for 3 mi= nutes.

[8] = Mortality from d-amphetamine in mice kept in group; assay type: in vivo; conditions: eight grouped mice, same amount (25 mg/kg) i.p. 10 minutes before 10 mg/kg d-amphetamine sulfate i.p.; all eight controls died
Procedure: as §3
However, PTT-01 reduced mortality from d-amphetamine. The same amount of PTT-01 was injected intraperitoneally. Then, 10 minutes later, an intraperitoneal injection of 10 mg/kg of d-amphe tamine sulfate was administered. Eight animals were used in this test and kept in a 25 x 20 x 14 om cage in an air-conditioned room (20°C, 6C,- humidity). […]

[9] = Spontaneous mobility (interruptions of a light beam in 10 minutes); assay type: in vivo; conditions: mice, controls fell to 71.4%
Procedure: Several groups of 4 mice each were placed in an apparatus de signed to provide a measure of spontaneous mobility by counting the number of interruptions of a light beam for a period of 10 mi= nutes. After preliminary measurement of mobility, animals were injected with PTT-01 (25 and 50 mg/kg) intraperitoneally. Con= trols received saline solution. Then minutes thereafter the mea= surement of mobility was repeated. Five groups of mice were used as controls and 6 other groups were treated with varying doses of PTT-01.

[10] = Sleep in cats conditioned to sleep for 8 hours; assay type: in vivo; conditions: 25 and 35 mg/kg
[11] = Electrode recording in the unrestrained cat; assay type: in vivo; conditions: permanent electrodes, 50 or 100 mg/kg
[12] = Antagonism towards d-amphetamine: amphetamine-induced hypermobility; assay type: in vivo, mice; set-up: reference not given here
Procedure: as §3
Six groups of 4 mice each were treated with 5 mg/kg of d-am= phetamine sulfate by intraperitoneal administration. Six groups of 4 animals each received the same dose of d-amphetamine sulfate plus 25 mg/kg of PTT-01 intraperitoneally, 15 minutes after d-am= phetamine sulfate; six groups of 4 animals each received saline solution and were used as controls. Spontaneous mobility was ob= served in every animal according to the procedure described herein before. The number of times each animal crossed the light beam throughout the 10 minutes test was noted. As appears from Table 4, the treatment with PTT-01 aid not prevent d-amphetamine from stimulating spontaneous mobility.

[13] = Subacute toxicity in animals; assay type: in vivo; conditions: 8 rats, 50 mg/kg daily for 6 consecutive days
Procedure: Accor= dingly, 8 rats were given 50 mg/kg daily for 6 consecutive days.

Arterial blood pressure = assay type: in vivo; conditions: single 50 mg/kg oral dose
Procedure: as §1

[14] = Influence on the electromyogram, rabbit with cortical electrodes; assay type: in vivo; conditions: electrodes implanted in cerebral cortex, 50 mg/kg intraperitoneal, similar to 30 mg/kg intravenous phenobarbital sodium
Procedure: The effect was similar to the effect caused by 30 mg/kg of intravenous phenobarbital sodium.

[15] = Antagonism towards strychnine: protection from death caused by hypodermic injection; assay type: in vivo; conditions: mouse, single oral 50 mg/kg dose, 1.2 mg/kg strichnine sulfate, groups of six
Procedure: as §2
Groups of six mice were used. Results are given in Ta= ble 5.

[16] = Sedation of laboratory animals; assay type: in vivo; conditions: dose of about 50 mg/kg
Procedure: The compound was administered to laboratory animals at a dose of about 50 mg/kg. The animals were sedated.
A good yield of α-n-pentylcarbonyl-amino-γ-butyrolactone is ob= tained. The compound was administered to laboratory animals at a dose of about 50 mg/kg. The animals were sedated.

[17] = I 25 mg/kg + II 40 mg/kg intraperitoneally
[18] = I 50 mg/kg + II 40 mg/kg intraperitoneally
[19] = 25 mg/kg i.p. 10 minutes before electroshock
[20] = 40 mg/kg i.p. 10 minutes before electroshock

α-n-butylcarbonyl-amino-γ-butyrolactone [PTT-01]
Animals under hypnosis/ treated [1, 17]: 4/4 | Duration of hypnosis in minutes (m± SE) [1, 17]: 52.5 ± 13 min | Animals under hypnosis/ treated [1, 18]: 4/4 | Duration of hypnosis in minutes (m± SE) [1, 18]: 75.2 ± 21.6 min | diuresis in water-loaded rats ([2]; single 50 mg/kg oral dose): No treatment caused any signi= ficant change | rate of urine excretion ([2]; water-loaded rats, daily oral dose of 50 mg/kg for five subsequent days): slowed | choleresis (Choleresis): No treatment caused any signi= ficant change | mean infusion time to cause death ([3]; 25 mg/kg, controls 260 + 13.4): 360 + 21.2 seconds | mean infusion time to cause death (mean + SE) ([3]; 50 mg/kg 15 minutes before infusion, strychnine sulfate 26.66 mg/l at 0.4 ml/min, controls 134 ± 3.2): 210 ± 6.1 s | mean infusion time to cause death ([3]; 50 mg/kg, controls 246 ± 3.1): 338 ± 24.3 s | time within which they left the compartment ([4]; 25 mg/kg intraperitoneally): 60.6 + 3.9 sec | time within which they left the compartment ([4]; 50 mg/kg): 77.5 ± 2.7 s | effect in rats ([5]; 50 mg/kg by oral route): did not cause any particular effect | effect in rats ([5]; 100 mg/kg by oral route): mild sedative effect | duration of the sedative and hypnotic effects ([5]; rats, acute toxicity doses, animal returned to normal): not long lasting | sedative effect ([5]; rats, from the lowest intraperitoneal dose): the sedative effect was obtained | loss of the righting reflex ([5]; rats, highest oral dose): not cause the loss of the righting reflex | sedative effect ([5]; rats, highest oral dose): produced a sedative effect | loss of the righting reflex ([5]; rats, intraperitoneal, 1 g/kg): the loss of the righting reflex occurred | LD50 ([5]; rats, intraperitoneally): more than 2 g/kg | LD50 ([5]; rats, orally by gastric probe): more than 2 g/kg | Number of animals Dead [6, 19]: 0/8 | Number of animals with Clonic convulsions [6, 19]: 8 (8) | Number of animals with Tonic convulsions [6, 19]: 0 (8) | excretion rate of intravenously injected bromosulphonphthalein in bile [7]: No treatment caused any signi= ficant change | mice staying on the bar for 3 minutes (Rotating bar test; 25 mg/kg intraperitoneal): two out of the five | mice staying on the bar for 3 minutes (Rotating bar test; 50 mg/kg intraperitoneal): none | animals died [8]: 5 of the eight | mobility, % of the base-line values ([9]; 25 mg/kg intraperitoneally): 31.9% | mobility, % of the base-line values ([9]; 50 mg/kg intraperitoneally): 23.1% | number of cases of REM sleep [10]: reduced the number of cases of REM sleep | total sleeping time [10]: did not modify the total sleeping time | sedation and electromyographic alterations [11]: sedation oc= curred without electromyographic alterations | Mean number of crossings (± SE) in 10 minutes ([12]; mice, d-amphetamine 5 mg/kg i.p. + 25 mg/kg i.p. given 15 minutes after d-amphetamine): 836 ± 100 | sedative effect or other abnormal symptoms [13]: No sedative effect or other abnormal symptoms were observed | arterial blood pressure (Arterial blood pressure): No treatment caused any signi= ficant change | electromyographic tracing [14]: tracing to become flat | protection against the lethal effect of strichnine sulfate [15]: protected all the animals

CC(C)CC(=O)NC1CCOC1=O (stereo not drawn) [Example 2, α-isobutylcarbonyl-amino-γ-butyrolactone]
sedation [16]: sedated

CCC1(c2ccccc2)C(=O)NC(=O)NC1=O [Phenobarbital Na, Phenobarbital sodium, reference compound]
Number of animals Dead [6, 20]: 0/8 | Number of animals with Clonic convulsions [6, 20]: 8 (8) | Number of animals with Tonic convulsions [6, 20]: 0 (8)

C[C@H](N)Cc1ccccc1 [d-amphetamine, reference compound]
Mean number of crossings (± SE) in 10 minutes ([12]; mouse, in vivo): 657 ± 59

CCCCCC(=O)NC1CCOC1=O (stereo not drawn) [Example 3, α-n-pentylcarbonyl-amino-γ-butyrolactone]
sedation [16]: sedated

CCCC(C)C1(CC)C(=O)NC(=O)NC1=O (stereo not shown) [II, sodium pentobarbital, reference compound]
Animals under hypnosis/ treated ([1]; II 40 mg/kg intraperitoneally alone): 3/4 | Duration of hypnosis in minutes (m± SE) ([1]; II 40 mg/kg intraperitoneally alone, zero assigned to animals not losing the righting reflex): 3.25 ± 3.4 min

From patent EP0151964A2, “New derivatives of alpha-amino-gamma-butyrolactone, method for the preparation thereof and pharmaceutical compositions containing them” (priority 1984, dated 1985)
